From patent publication US7396837B2, “Antitumoral analogs of lamellarins” (Pharma Mar, S.A.U., priority 2002, dated 2008)
Like-named read-outs stand apart in the source and are kept apart here.

Columns and labels:
[1] = test system: LNCaP; experiment: SRB colorimetric cell growth inhibition assay, LNCaP; format: cell-based; settings: Homo sapiens, LNCaP, LN-caP; for GI50: GI=growth inhibition, read-out: GI50 LN-caP; for CC50: read-out: LC50 LN-caP; for IC (TGI): read-out: TGI LN-caP
Summary of the method: (§1)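 Cancer cells grown in vitro were continuously treated with compound. Cell mass was then determined by SRB staining and expressed as growth inhibition.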

[2] = test system: PANC-1; experiment: SRB colorimetric cell growth inhibition assay, PANC-1; format: cell-based; settings: Homo sapiens, PANC-1, PANC-1; for GI50: GI=growth inhibition, read-out: GI50 PANC-1; for CC50: cell killing (cytotoxic effect), read-out: LC50 PANC-1; for IC (TGI): total growth inhibition (cytostatic effect), read-out: TGI PANC-1
Summary of the method: as §1

[3] = test system: A-549; experiment: SRB colorimetric cell growth inhibition assay, A-549; format: cell-based; settings: Homo sapiens, A549, A-549; for GI50: GI=growth inhibition, read-out: GI50 A-549; for CC50: cell killing (cytotoxic effect), read-out: LC50 A-549; for IC (TGI): total growth inhibition (cytostatic effect), read-out: TGI A-549
Summary of the method: as §1

[4] = molecular target: T1, human topoisomerase I (Homo sapiens, UniProt P11387); experiment: Topoisomerase I DNA relaxation assay (supercoiled plasmid DNA); format: biochemical; settings: for stimulation of DNA cleavage by topoisomerase I / inhibition of topoisomerase I (nicked DNA band) in DNA relaxation assay: supercoiled plasmid DNA, each compound tested at 1 μM, agarose gel with ethidium bromide
T1 sequence (P11387 1-765): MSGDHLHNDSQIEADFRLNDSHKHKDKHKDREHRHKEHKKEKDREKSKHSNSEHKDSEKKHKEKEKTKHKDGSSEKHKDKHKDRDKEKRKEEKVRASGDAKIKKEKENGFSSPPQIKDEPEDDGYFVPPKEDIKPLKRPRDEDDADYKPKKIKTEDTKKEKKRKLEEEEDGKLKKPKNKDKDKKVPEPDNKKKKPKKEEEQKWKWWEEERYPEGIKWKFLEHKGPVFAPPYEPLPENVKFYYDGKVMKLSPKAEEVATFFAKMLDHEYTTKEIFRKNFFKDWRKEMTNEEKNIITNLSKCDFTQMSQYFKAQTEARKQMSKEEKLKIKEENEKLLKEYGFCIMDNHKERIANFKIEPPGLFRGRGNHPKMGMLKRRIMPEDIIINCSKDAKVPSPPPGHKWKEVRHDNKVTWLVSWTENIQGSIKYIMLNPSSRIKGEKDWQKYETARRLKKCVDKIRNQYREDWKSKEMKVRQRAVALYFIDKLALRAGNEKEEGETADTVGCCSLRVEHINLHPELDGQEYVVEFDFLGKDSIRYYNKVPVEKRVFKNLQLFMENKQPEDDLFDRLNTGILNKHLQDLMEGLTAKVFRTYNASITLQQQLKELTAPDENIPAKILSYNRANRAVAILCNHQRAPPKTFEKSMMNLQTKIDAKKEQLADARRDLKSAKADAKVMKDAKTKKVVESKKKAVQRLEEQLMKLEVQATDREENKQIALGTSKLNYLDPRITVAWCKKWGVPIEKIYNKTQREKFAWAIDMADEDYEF
Summary of the method: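 Supercoiled plasmid DNA was relaxed by human topoisomerase I with or without test compound at 1 μM. Products were resolved by agarose gel electrophoresis with ethidium bromide staining.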

[5] = test system: SK-BR-3; experiment: SRB colorimetric cell growth inhibition assay, SK-BR-3; format: cell-based; settings: Homo sapiens, SK-BR-3, SK-BR-3; for GI50: GI=growth inhibition, read-out: GI50 SK-BR-3; for CC50: read-out: LC50 SK-BR-3; for IC (TGI): read-out: TGI SK-BR-3
Summary of the method: as §1

[6] = test system: IGROV-ET; experiment: SRB colorimetric cell growth inhibition assay, IGROV-ET (ET-743 resistant); format: cell-based; settings: Homo sapiens, IGROV-ET; for GI50: GI=growth inhibition, read-out: GI50 IGROV-ET; for CC50: read-out: LC50 IGROV-ET; for IC (TGI): read-out: TGI IGROV-ET
Summary of the method: as §1

[7] = test system: IGROV; experiment: SRB colorimetric cell growth inhibition assay, IGROV; format: cell-based; settings: Homo sapiens, IGROV; for GI50: GI=growth inhibition, read-out: GI50 IGROV; for CC50: read-out: LC50 IGROV; for IC (TGI): read-out: TGI IGROV
Summary of the method: as §1

[8] = test system: K-562; experiment: SRB colorimetric cell growth inhibition assay, K-562; format: cell-based; settings: Homo sapiens, K562, K-562; for GI50: GI=growth inhibition, read-out: GI50 K-562; for CC50: cell killing (cytotoxic effect), read-out: LC50 K-562; for IC (TGI): total growth inhibition (cytostatic effect), read-out: TGI K-562
Summary of the method: as §1

[9] = test system: LoVo; experiment: SRB colorimetric cell growth inhibition assay, LoVo; format: cell-based; settings: Homo sapiens, LoVo; for GI50: GI=growth inhibition, read-out: GI50 LOVO; for CC50: cell killing (cytotoxic effect), read-out: LC50 LOVO; for IC (TGI): total growth inhibition (cytostatic effect), read-out: TGI LOVO
Summary of the method: as §1

[10] = test system: HT-29; experiment: SRB colorimetric cell growth inhibition assay, HT-29; format: cell-based; settings: Homo sapiens, HT-29, HT-29; for GI50: GI=growth inhibition, read-out: GI50 HT-29; for CC50: cell killing (cytotoxic effect), read-out: LC50 HT-29; for IC (TGI): total growth inhibition (cytostatic effect), read-out: TGI HT-29
Summary of the method: as §1

[11] = test system: LoVo-Dox; experiment: SRB colorimetric cell growth inhibition assay, LoVo-Dox (MDR); format: cell-based; settings: Homo sapiens, LOVO-DOX; for GI50: GI=growth inhibition, read-out: GI50 LOVO-DOX; for CC50: cell killing (cytotoxic effect), read-out: LC50 LOVO-DOX; for IC (TGI): total growth inhibition (cytostatic effect), read-out: TGI LOVO-DOX
Summary of the method: as §1

[12] = test system: SK-MEL-28; experiment: SRB colorimetric cell growth inhibition assay, SK-MEL-28; format: cell-based; settings: Homo sapiens, SK-MEL-28, MEL-28; for GI50: GI=growth inhibition, read-out: GI50 MEL-28; for CC50: read-out: LC50 MEL-28; for IC (TGI): read-out: TGI MEL-28
Summary of the method: as §1

[13] = test system: DU-145; experiment: SRB colorimetric cell growth inhibition assay, DU-145; format: cell-based; settings: Homo sapiens, DU-145, DU-145; for GI50: GI=growth inhibition, read-out: GI50 DU-145; for CC50: read-out: LC50 DU-145; for IC (TGI): read-out: TGI DU-145
Summary of the method: as §1

[14] = LC=cell killing (cytotoxic effect)
[15] = TGI=total growth inhibition (cytostatic effect)
[16] = cell killing (cytotoxic effect)
[17] = total growth inhibition (cytostatic effect)

| SMILES | GI50 [1] [µM] | GI50 [2] [µM] | CC50 [2] [µM] | IC (TGI) [2] [µM] | GI50 [3] [µM] | CC50 [3] [µM] | IC (TGI) [3] [µM] | stimulation of DNA cleavage by topoisomerase I / inhibition of topoisomerase I (nicked DNA band) in DNA relaxation assay [4] | GI50 [5] [µM] | GI50 [6] [µM] | GI50 [7] [µM] | GI50 [8] [µM] | CC50 [8] [µM] | IC (TGI) [8] [µM] | GI50 [9] [µM] | CC50 [9] [µM] | IC (TGI) [9] [µM] | GI50 [10] [µM] | CC50 [10] [µM] | IC (TGI) [10] [µM] | further results |
| --- | --- | --- | --- | --- | --- | --- | --- | --- | --- | --- | --- | --- | --- | --- | --- | --- | --- | --- | --- | --- | --- |
| COc1cc(-c2c3n(c4c(=O)oc5cc(O)c(OC)cc5c24)CCc2cc(O)c(OC)cc2-3)ccc1O [Compound 109] | 1.16 | 5.7 | 19.9 | 19.9 | 5.94 | 19.9 | 14.1 | inactive | 3.45 | 9.67 | 1.8 | 0.425 | 19.9 | 19.9 | 0.917 | 19.9 | 4.07 | 4.81 | 19.9 | 19.9 | CC50 [1, 14]: 19.9 µM; IC (TGI) [1, 15]: 1.99 µM; CC50 [5, 14]: 19 µM; IC (TGI) [5, 15]: 8.1 µM; CC50 [6, 14]: 19.9 µM; IC (TGI) [6, 15]: 19.9 µM; CC50 [7, 14]: 19.9 µM; IC (TGI) [7, 15]: 6.08 µM; GI50 [11]: 5.64 µM; CC50 [11]: 19.9 µM; IC (TGI) [11]: 13.5 µM; GI50 [12]: 0.885 µM; CC50 [12, 14]: 10.8 µM; IC (TGI) [12, 15]: 2.57 µM; GI50 [13]: 2.99 µM; CC50 [13, 14]: 19.9 µM; IC (TGI) [13, 15]: 15.4 µM |
| COc1cc(-c2c3c4cc(OC)c(OC(=O)CCCCCN)cc4oc(=O)c3n3ccc4cc(OC(=O)CCCCCN)c(OC)cc4c23)ccc1OC(=O)CCCCCN [Compound 169] | 0.0373 | 0.152 | 10.5 | 10.5 | 0.0646 | 9.74 | 1.14 | inhibit topoisomerase I | 0.0387 | 0.0418 | 0.0471 | 0.068 | 10.5 | 3.21 | 0.159 | 1.42 | 0.418 | 2.97 | 10.5 | 10.5 | CC50 [1, 16]: 1.24 µM; IC (TGI) [1, 17]: 0.183 µM; stimulation of DNA cleavage by topoisomerase I, concentration-dependent measurements compared with LAM-D (3) ([4]; dose-response analysis): equally efficient to (3); CC50 [5, 16]: 10.5 µM; IC (TGI) [5, 17]: 0.132 µM; CC50 [6, 16]: 10.5 µM; IC (TGI) [6, 17]: 0.301 µM; CC50 [7, 16]: 10.5 µM; IC (TGI) [7, 17]: 1.92 µM; GI50 [11]: 0.258 µM; CC50 [11]: 1050 µM; IC (TGI) [11]: 0.922 µM; GI50 [12]: 0.0464 µM; CC50 [12, 16]: 10.5 µM; IC (TGI) [12, 17]: 0.529 µM; GI50 [13]: 0.0151 µM; CC50 [13, 16]: 0.0105 µM; IC (TGI) [13, 17]: 0.0901 µM |
